Measurements: ChEMBL document CHEMBL5725558, “BTK Inhibitors” (2017)

Target: Tyrosine-protein kinase BTK (Homo sapiens, UniProt Q06187)
Test: Phosphorylation reactions were allowed to proceed for 120 minutes. […] After 60 minutes incubation with detection reagents, reaction plates were read on a PerkinElmer EnVision plate reader using standard TR-FRET protocol. […] IC50 values were determined by 4 parameter robust fit of TR-FRET ratio values vs. (Log10) compound concentrations.

Chain of Tyrosine-protein kinase BTK (Q06187 whole entry): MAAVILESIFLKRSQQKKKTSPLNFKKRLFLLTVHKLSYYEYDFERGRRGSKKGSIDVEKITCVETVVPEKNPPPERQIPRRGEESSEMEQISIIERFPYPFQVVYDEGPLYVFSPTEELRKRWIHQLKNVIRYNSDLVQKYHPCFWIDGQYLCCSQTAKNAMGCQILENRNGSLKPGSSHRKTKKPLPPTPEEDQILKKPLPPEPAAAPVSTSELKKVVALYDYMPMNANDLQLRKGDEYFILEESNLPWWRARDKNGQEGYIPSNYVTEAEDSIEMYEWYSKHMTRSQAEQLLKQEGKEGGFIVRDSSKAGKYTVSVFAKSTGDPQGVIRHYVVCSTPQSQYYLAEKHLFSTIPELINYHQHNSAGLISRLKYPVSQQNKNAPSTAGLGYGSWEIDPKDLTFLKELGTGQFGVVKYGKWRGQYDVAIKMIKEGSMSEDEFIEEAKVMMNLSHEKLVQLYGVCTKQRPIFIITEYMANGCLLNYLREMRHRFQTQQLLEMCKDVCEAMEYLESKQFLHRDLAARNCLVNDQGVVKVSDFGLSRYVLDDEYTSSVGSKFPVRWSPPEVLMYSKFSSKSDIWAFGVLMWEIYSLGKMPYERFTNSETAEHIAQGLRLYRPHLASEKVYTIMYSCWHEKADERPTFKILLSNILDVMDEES

Q: How did the IC50 turn out when CC(=O)N1CCC[C@@H](c2nc(-c3ccc(C(=O)Nc4cc(C)ccn4)cc3)c3c(N)nccn23)C1 was run?
A: < 10 nM
